According to publication PMC4506530, “Small-Molecule Inhibitors That Target Protein–Protein Interactions in the RAD51 Family of Recombinases” (Chemmedchem, 2014):
“Also recorded” adds a separate entry of the source. Like-named read-outs stand apart in the source and are kept apart here.

Assays:
HumRADA2 [1] = target: T1, HumRADA2 (Pyrococcus furiosus, UniProt O74036, D220A/DEL288-314/E219S/I169M/K221M/V202Y/Y201A); conditions: previously published fragment screening, humanised RadA, cited from earlier work
HumRADA2 [2] = target: T1, HumRADA2; test: Isothermal titration calorimetry (ITC), direct binding to HumRADA2; conditions: for -TDS / DG / DH: ITC thermodynamic binding profile, Table S1; for LLE: LLE=pKD−clog P, clog P calculated with Instant JChem (ChemAxon)
Description: We previously published fragment-screening results using a humanised RAD51 surrogate from Pyrococcus furiosus, which we refer to as HumRADA2 (previously referred to as MAYSAM RadA).[23] In this surrogate protein, the N-terminal domain with the oligomerisation sequence was removed to monomerise the protein and expose the FxxA binding site for screening, and six surface residues were mutated around the Phe pocket in order to humanise the protein in this region.
(§1) Supplemental Experimental Procedures
(§2) C-terminal ATPase domain of P. furiosus RadA (residues 108–349, with deletion of the “L2” loop residues 288–314) was expressed in E.coli and purified as described before using ion-exchange ad size exclusion chromatographies.[1] Purified protein was concentrated to 0.5 mM, flash frozen in liquid nitrogen and stored at -80C. Protein concentration was determined by measuring absorbance at 280 nm in 6M GndHCl and using calculated absorption coefficient […]
(§3) Isothermal Titration Calorimetry
(§4) ITC experiments were performed at 25°C on a MicroCal ITC-200 (GE Healthcare).
(§5) HumRadA2 (humanized RadA) (600 µM in 20 mM MES pH 6.0 with 100 mM NaCl and 0.5 mM EDTA was diluted with Tris buffer (200 mM, pH 7.5 with 100 mM NaCl), and DMSO was added to match to the ligand solution. In titrations with ATP, 5 mM MgCl2 was included in the ligand buffer and the protein buffer. Compounds in DMSO were diluted into the same Tris buffer to give a final concentration of 0.6–10 mM ligand in 10% DMSO and Tris buffer. Care was taken to ensure that the DMSO concentrations in the protein and ligand solutions were well matched so as to avoid artefacts arising from heats of dilution of DMSO. In a typical experiment, protein (60 µM) was loaded in the sample cell, and 16 injections (2.4 µL) of 4.8 s duration were made at 80 s intervals from a syringe loaded with ligand (0.6–10 mM) and rotating at 1000 rpm. In all titrations, an initial injection of ligand (0.4 µL) was made and discarded during data analysis. Control titrations of ligand to buffer were performed and […]
(§6) The thermodynamic parameters were obtained by fitting the data to a single-site-binding model by using Origin software and fixing the stoichiometry as 1.0 for […]

HumRADA2 [3] = target: T1, HumRADA2; test: Competitive ITC experiments to HumRADA2 (ligand titrated in the presence of compound); type: binding; conditions: protein pre-incubated with compound (200 μM 5 c)
Method: The KD measurement of each ligand was then repeated, but in the presence of 200 μM 5 c (bottom row titrations, Figure 2 B).
as §1, §2, §3, §4, §5, §6

wild-type RadA = test: ITC, direct binding to unhumanised wild-type RadA; design: species or system Pyrococcus furiosus; conditions: unhumanised wild-type RadA protein
[4] = tryptophan ester series (Table 1)
[5] = substituted tryptamine series (Table 2)

Row | Molecule | Kd (HumRADA2 [1]; read-out: KD) | Kd (HumRADA2 [1]) | -TDS (HumRADA2 [2]) | DG (HumRADA2 [2]) | DH (HumRADA2 [2]) | LLE (HumRADA2 [2]; [4]) | LE (ligand efficiency) (HumRADA2 [2]; [4]) | competition with binding of the RadA self-oligomerisation peptide (HumRADA2 [3]) | Kd (HumRADA2 [2]) | also measured
1 | COC(=O)c1cccc2[nH]ccc12 [4-methyl ester indole] | 1300 µM |  |  |  |  |  |  |  |  | 
2 | COC(=O)[C@@H](N)Cc1c[nH]c2ccccc12 [compound 1, L-tryptophan methyl ester] |  | 570 µM | 2.0 kcal/mol | -4.4 kcal/mol | -6.4 kcal/mol | 1.9 | 0.28 kcal mol−1 per heavy atom |  |  | 
3 | c1ccc2[nH]ncc2c1 [indazole] |  | 1000 µM |  |  |  |  |  |  |  | 
4 | O=S(=O)(NCCc1c[nH]c2ccccc12)c1cc(Br)c(Cl)s1 [7 m] |  |  | -2.7 kcal/mol | -8.1 kcal/mol | -5.4 kcal/mol |  |  | blockage of the binding | 1.3 ± 0.1 µM | LLE (HumRADA2 [2]; [5]): 1.5; LE (ligand efficiency) (HumRADA2 [2]; [5]): 0.36 kcal mol−1 per heavy atom
5 | Ac-FHTA-NH2 [reference compound] | 250 µM |  |  |  |  |  |  |  |  | Kd (HumRADA2 [2]; ITC against apo protein, in the absence of 5 c, read-out: KD): 250 µM
6 | Cl.N[C@@H](Cc1c[nH]c2ccccc12)C(=O)OCCc1ccccc1 [5 c] |  |  | -3.3 kcal/mol | -6.0 kcal/mol | -2.7 kcal/mol | 1.1 | 0.26 kcal mol−1 per heavy atom | competes with and blocks the binding; also recorded: shows competition with the FxxA binding site | 35 ± 4 µM | binding to wild-type RadA (wild-type RadA): no binding; competition with binding of Ac-FHTA-NH2 tetrapeptide (HumRADA2 [3]): competes with and blocks the binding; also recorded: shows competition with the FxxA binding site; effect on binding of ATP (HumRADA2 [3]): not affected; also recorded: not the ATP binding site
